Assay [1] concerns melon (Cucumis melo) fruit acid form alpha-galactosidase. Briefly: Substrate kinetics (Lineweaver-Burk) of acid alpha-galactosidase. In kind it is biochemical, muskmelon (Cucumis melo L. cv C-8). The method, then: (§1) For routine analysis and monitoring the activity in the purification steps, alpha-galactosidase was assayed as described by Smart and Pharr (“Characterization of alpha-galactosidase from cucumber leaves”, Plant Physiology, 66:731-734, 1980), using p-nitrophenyl alpha-galactoside (pNPG) as substrate. […] The reaction was terminated after 10 min by adding 1 ml of 5% (w/v) Na2CO3 and activity expressed as nmol nitrophenol per min as measured at 410 nm. […] The assay was started by adding 50 μl enzyme preparation at 35 C and terminated after 10 to 20 min by 2 min boiling. […] For the partial purification of the acid form of alpha-galactosidase the fractions active at pH 5.5 were pooled and concentrated by reverse dialysis against solid sucrose. […] The active fractions were then desalted by dialysis against buffer A for 12 hours with two changes of the buffer. This enzyme fraction was used for the characterization of the acidic form of alpha-galactosidase. […] The substrate specificity of the alpha-galactosidases was tested with pNPG, stachyose, raffinose, melibiose or guar gum (Sigma).

In assay [2] the target is T1, melon (Cucumis melo) fruit alkaline alpha-galactosidase Form I (Cucumis melo, UniProt Q84NI7).
T1 sequence (Q84NI7 1-754): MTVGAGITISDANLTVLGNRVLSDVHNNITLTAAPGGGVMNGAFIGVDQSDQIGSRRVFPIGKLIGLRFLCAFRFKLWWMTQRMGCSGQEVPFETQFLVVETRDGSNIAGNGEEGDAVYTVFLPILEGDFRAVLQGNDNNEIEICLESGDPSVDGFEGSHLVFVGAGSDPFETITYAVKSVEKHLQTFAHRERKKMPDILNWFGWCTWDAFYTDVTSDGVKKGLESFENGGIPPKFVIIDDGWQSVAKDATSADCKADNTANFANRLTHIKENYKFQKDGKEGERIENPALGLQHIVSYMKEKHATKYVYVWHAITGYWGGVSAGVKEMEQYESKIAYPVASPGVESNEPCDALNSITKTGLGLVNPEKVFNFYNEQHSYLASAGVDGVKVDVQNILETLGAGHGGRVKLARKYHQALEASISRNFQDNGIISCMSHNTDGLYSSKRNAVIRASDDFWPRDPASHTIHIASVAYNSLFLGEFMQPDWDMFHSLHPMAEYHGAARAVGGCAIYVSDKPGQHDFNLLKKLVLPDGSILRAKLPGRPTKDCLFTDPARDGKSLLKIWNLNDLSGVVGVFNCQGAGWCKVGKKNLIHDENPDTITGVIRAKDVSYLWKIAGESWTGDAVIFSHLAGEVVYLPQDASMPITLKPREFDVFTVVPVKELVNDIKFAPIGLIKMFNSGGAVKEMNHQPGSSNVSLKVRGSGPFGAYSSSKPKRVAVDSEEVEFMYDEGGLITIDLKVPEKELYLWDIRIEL
Briefly: Substrate kinetics (Lineweaver-Burk) of alkaline alpha-galactosidase Form I. The method, then:
(§2) For routine analysis and monitoring the activity in the purification steps, alpha-galactosidase was assayed as described by Smart and Pharr (“Characterization of alpha-galactosidase from cucumber leaves”, Plant Physiology, 66:731-734, 1980), using p-nitrophenyl alpha-galactoside (pNPG) as substrate. Reaction was initiated by adding 50 μl enzyme aliquot to either 200 μl 100 mM pH 5.5 McIlvaine buffer or 100 mM pH 7.5 HEPES buffer, containing 5 mM pNPG at 35 C. The reaction was terminated after 10 min by adding 1 ml of 5% (w/v) Na2CO3 and activity expressed as nmol nitrophenol per min as measured at 410 nm. […] The assay was started by adding 50 μl enzyme preparation at 35 C and terminated after 10 to 20 min by 2 min boiling.
(§3) The fractions from the DEAE-Sepharose chromatography which were active at pH 7.5 were pooled and dialyzed against buffer A for 12 h prior to loading onto an HPLC ion exchange chromatography column (Mono-Q HR 5/5, Pharmacia, Uppsala, Sweden), previously equilibrated with buffer A. Bound proteins were eluted with a linear gradient of 0.1 to 0.45 M NaCl and the active fractions were detected using pNPG as substrate at pH 7.5 as described above. […] For the further purification of Form II the active fractions of the peak II were chromatographed on hydrophobic interaction chromatography. The fractions were pooled, brought to 1 M (NH4)2SO4 and loaded on to a hydrophobic interaction column (phenyl-Sepharose CL-4B, 0.5×12 cm, Pharmacia, Uppsala, Sweden) previously equilibrated with buffer A containing 1 M (NH4)2SO4. The protein was eluted with a reverse stepwise gradient from 1 to 0 M (NH4)2SO4 with 50 mM intervals in buffer A. Fractions containing the activity peak were collected and dialyzed for 12 h against buffer A and the dialysate was concentrated by reverse dialysis against solid sucrose. The enzyme, partially purified by hydrophobic interaction chromatography, was used for the characterization of Form II. The active fractions from the hydrophobic interaction column were further purified. Active fractions were separated electrophoretically using a Mini Prep Cell (Bio-Rad Laboratories, Hercules, Calif.) for discontinuous native-PAGE with 7% polyacrylamide, according to manufacturer's instructions. Fractions (0.25 ml/fraction) were assayed at pH 7.5 with pNPG as substrate for the activity. The active fractions were pooled, concentrated by Vivaspin Concentrator (Vivascience LTD, Lincoln, England), and run in a 8% SDS-PAGE. Proteins in the SDS-PAGE were identified using Coomassie Blue staining.
(§4) Therefore, the active fractions from the Mono-Q column were used for the characterization of Form I. In addition, the Form I enzyme was further purified, as described in the following section.

In assay [3] the test system is Cucurbita pepo leaf alkaline alpha-galactosidase ("LIV" enzyme). Particulars: Gaudreault and Webb; alkaline form; cited from earlier work.
Assay [4] shares this test system. Briefly: Substrate kinetics of Cucurbita pepo leaf alkaline alpha-galactosidase (Gaudreault and Webb). The format is biochemical. Particulars: calculated for prior art "LIV" enzyme of Gaudreault and Webb.
The test system of assay [5] is Escherichia coli K12 alpha-galactosidase. Particulars: Schmid and Schmitt 1976; cited from earlier work.
For assay [6], the target named is T2, melon (Cucumis melo) fruit alkaline alpha-galactosidase Form II (Cucumis melo, UniProt Q84NI6).
T2 construct: native 102 kDa, denatured 92 kDa; assayed at pH 7.5
T2 sequence (Q84NI6 1-772): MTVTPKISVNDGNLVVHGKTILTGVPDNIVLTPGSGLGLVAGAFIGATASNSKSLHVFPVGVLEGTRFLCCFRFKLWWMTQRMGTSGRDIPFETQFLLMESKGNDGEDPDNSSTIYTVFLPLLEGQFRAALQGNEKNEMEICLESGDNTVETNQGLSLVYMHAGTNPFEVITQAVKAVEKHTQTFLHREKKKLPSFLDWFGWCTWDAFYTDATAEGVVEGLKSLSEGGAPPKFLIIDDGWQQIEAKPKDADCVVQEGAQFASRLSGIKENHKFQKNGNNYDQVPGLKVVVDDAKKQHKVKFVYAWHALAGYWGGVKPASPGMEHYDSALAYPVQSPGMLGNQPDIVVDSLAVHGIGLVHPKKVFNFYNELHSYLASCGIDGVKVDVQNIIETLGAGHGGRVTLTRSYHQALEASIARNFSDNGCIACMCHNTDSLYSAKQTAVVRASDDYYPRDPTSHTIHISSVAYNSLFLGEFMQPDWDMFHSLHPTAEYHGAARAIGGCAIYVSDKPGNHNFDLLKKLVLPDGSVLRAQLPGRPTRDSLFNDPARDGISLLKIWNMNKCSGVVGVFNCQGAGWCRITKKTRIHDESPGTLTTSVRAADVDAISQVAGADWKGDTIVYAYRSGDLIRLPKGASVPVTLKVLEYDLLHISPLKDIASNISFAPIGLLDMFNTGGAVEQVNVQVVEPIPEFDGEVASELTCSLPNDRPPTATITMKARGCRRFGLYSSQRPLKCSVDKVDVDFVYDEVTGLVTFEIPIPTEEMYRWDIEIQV
Briefly: Substrate kinetics (Lineweaver-Burk) of alkaline alpha-galactosidase Form II. The format is biochemical, muskmelon (Cucumis melo L. cv C-8). The method, then: as §2, §3

Assay [7] concerns the target T2, melon (Cucumis melo) fruit alkaline alpha-galactosidase Form II. Briefly: Inhibition of alkaline alpha-galactosidase Form II by alternative substrate (galactose release). Particulars: read-out: inhibition by excess raffinose (galactose release). The format is biochemical, muskmelon (Cucumis melo L. cv C-8). The procedure: as §2
Assay [8] relates to Pseudomonas fluorescens H-601 alpha-galactosidase. Particulars: Hashimoto et al. 1991; relative Km values; cited from earlier work.
In assay [9] the target is T1, melon (Cucumis melo) fruit alkaline alpha-galactosidase Form I. Briefly: Inhibition of alkaline alpha-galactosidase Form I by galactose, pNPG as substrate. Set-up: native 84 kDa, denatured 79 kDa; assayed at pH 7.5. In kind it is biochemical, muskmelon (Cucumis melo L. cv C-8). The method, then: as §2, §3, §4
For assay [10], the system named is Cucurbita pepo leaf alkaline alpha-galactosidase. Particulars: 6.4 mM galactose; 7.5 mM pNPG, pH 7.5; cited from earlier work.
For assay [11], the system named is melon (Cucumis melo) fruit acid form alpha-galactosidase. Briefly: Inhibition of acid alpha-galactosidase by galactose, pNPG as substrate. The format is biochemical, muskmelon (Cucumis melo L. cv C-8). The procedure: as §1
Assay [12] concerns the target T2, melon (Cucumis melo) fruit alkaline alpha-galactosidase Form II. Briefly: Inhibition of alkaline alpha-galactosidase Form II by galactose, pNPG as substrate. The format is biochemical, muskmelon (Cucumis melo L. cv C-8). The method, then: as §2
as §3, with “Active fractions were separated electrophoretically using a Mini Prep Cell (Bio-Rad Laboratories, Hercules, Calif.) for discontinuous native-PAGE with 7% polyacrylamide, according to manufacturer's instructions. Fractions (0.25 ml/fraction) were assayed at pH 7.5 with pNPG as substrate for the activity. The active fractions were pooled, concentrated by Vivaspin Concentrator (Vivascience LTD, Lincoln, England), and run in a 8% SDS-PAGE. Proteins in the SDS-PAGE were identified using Coomassie Blue staining.” left out

Structures are written as SMILES.

For the compound `OC[C@H]1O[C@H](OC[C@H]2O[C@H](O[C@]3(CO)O[C@H](CO)[C@@H](O)[C@@H]3O)[C@H](O)[C@@H](O)[C@@H]2O)[C@H](O)[C@@H](O)[C@H]1O` [Raffinose, O-alpha-D-galactopyranosyl-(1-6)-O-alpha-D-glucopyranosyl-(1-2)-beta-D-fructofuranoside], the Vmax/Km ratio is 0.17 in assay [1], 0.37 in [2], 0.0039 in [4] and 0.01 in [6]. For the same compound, the Km in assay [1] (Lineweaver-Burk) is 4.2 mM; in [2] (Lineweaver-Burk), < 5 mM; in [3], 36.4 mM; in assay [5] it was 60 mM; in assay [8] it was 17 mM. Also, the Vmax in [1] (Lineweaver-Burk) was found to be 0.71 μmol mg^−1 protein min^−1; in assay [2] (Lineweaver-Burk), 0.56 μmol mg^−1 protein min^−1; in assay [6] (Lineweaver-Burk) it was 0.28 μmol mg^−1 protein min^−1. Also, the inhibition at 80000 µM in assay [7] amounted to 35%.

For the compound `OC[C@H]1O[C@H](O)[C@H](O)[C@@H](O)[C@H]1O` [galactose, alpha-D-galactose], the inhibition at 8000 µM amounted to 8% in assay [9] (8 mM galactose, 10 mM pNPG, alkaline Form I) and 70% in [12] (8 mM galactose, 10 mM pNPG, read-out: reduction in activity by galactose). Further, the “inhibition type (galactose)” value in [9] (alkaline Form I, Lineweaver-Burk) is “competitive”; in assay [11] (Lineweaver-Burk), “competitive”; in [12] (Lineweaver-Burk), “competitive”. The Ki in assay [9] (alkaline Form I, competitive, Lineweaver-Burk) stood at 13 mM; in assay [11] (competitive, Lineweaver-Burk) it was 0.06 mM; in assay [12] (competitive, Lineweaver-Burk), 1.3 mM. In addition, the “inhibition of catalytic activity by galactose (in words)” value in [9] (alkaline alpha galactosidase of the invention, FIG. 4D-F) was “no inhibition of catalytic activity”. The “reduction of reaction velocity by galactose” value in assay [10] was 50%. Moreover, the “reduction in activity by galactose” value in [11] (8 mM galactose, 10 mM pNPG) was 65%.
